Source: ChEMBL document CHEMBL3994622, “Design and synthesis of new RAF kinase-inhibiting antiproliferative quinoline derivatives. Part 2: Diarylurea derivatives” (Eur J Med Chem, 2017)

Columns and labels:
Type in all cases: functional
CCRF-CEM = experiment: Growth inhibition of human CCRF-CEM cells assessed as cell growth at 10 uM incubated for 48 hrs by sulforhodamine B assay relative to control; conditions: read-out: Activity
HL-60(TB) = experiment: Growth inhibition of human HL-60(TB) cells assessed as cell growth at 10 uM incubated for 48 hrs by sulforhodamine B assay relative to control; conditions: HL-60, 48 h, read-out: Activity
K562 = experiment: Growth inhibition of human K562 cells assessed as cell growth at 10 uM incubated for 48 hrs by sulforhodamine B assay relative to control; conditions: K562, 48 h, read-out: Activity
MOLT-4 = experiment: Growth inhibition of human MOLT4 cells assessed as cell growth at 10 uM incubated for 48 hrs by sulforhodamine B assay relative to control; conditions: MOLT-4, 48 h, read-out: Activity
SR = experiment: Growth inhibition of human SR cells assessed as cell growth at 10 uM incubated for 48 hrs by sulforhodamine B assay relative to control; conditions: read-out: Activity
HOP-62 = experiment: Growth inhibition of human HOP62 cells assessed as cell growth at 10 uM incubated for 48 hrs by sulforhodamine B assay relative to control; conditions: HOP-62, 48 h, read-out: Activity
NCI-H226 = experiment: Growth inhibition of human NCI-H226 cells assessed as cell growth at 10 uM incubated for 48 hrs by sulforhodamine B assay relative to control; conditions: NCI-H226, 48 h, read-out: Activity
NCI-H23 = experiment: Growth inhibition of human NCI-H23 cells assessed as cell growth at 10 uM incubated for 48 hrs by sulforhodamine B assay relative to control; conditions: NCI-H23, 48 h, read-out: Activity
HCT-116 = experiment: Growth inhibition of human HCT116 cells assessed as cell growth at 10 uM incubated for 48 hrs by sulforhodamine B assay relative to control; conditions: HCT-116, 48 h, read-out: Activity
HCT-15 = experiment: Growth inhibition of human HCT15 cells assessed as cell growth at 10 uM incubated for 48 hrs by sulforhodamine B assay relative to control; conditions: HCT-15, 48 h, read-out: Activity
HT-29 = experiment: Growth inhibition of human HT-29 cells assessed as cell growth at 10 uM incubated for 48 hrs by sulforhodamine B assay relative to control; conditions: HT-29, 48 h, read-out: Activity
KM12 = experiment: Growth inhibition of human KM12 cells assessed as cell growth at 10 uM incubated for 48 hrs by sulforhodamine B assay relative to control; conditions: KM12, 48 h, read-out: Activity
SF-268 = experiment: Growth inhibition of human SF268 cells assessed as cell growth at 10 uM incubated for 48 hrs by sulforhodamine B assay relative to control; conditions: SF-268, 48 h, read-out: Activity
SF-295 = experiment: Growth inhibition of human SF295 cells assessed as cell growth at 10 uM incubated for 48 hrs by sulforhodamine B assay relative to control; conditions: SF-295, 48 h, read-out: Activity
SF-539 = experiment: Growth inhibition of human SF539 cells assessed as cell growth at 10 uM incubated for 48 hrs by sulforhodamine B assay relative to control; conditions: SF-539, 48 h, read-out: Activity
SNB-75 = experiment: Growth inhibition of human SNB75 cells assessed as cell growth at 10 uM incubated for 48 hrs by sulforhodamine B assay relative to control; conditions: SNB-75, 48 h, read-out: Activity
U-251 = experiment: Growth inhibition of human U251 cells assessed as cell growth at 10 uM incubated for 48 hrs by sulforhodamine B assay relative to control; conditions: U-251, 48 h, read-out: Activity
Malme-3M = experiment: Growth inhibition of human MALME-3M cells assessed as cell growth at 10 uM incubated for 48 hrs by sulforhodamine B assay relative to control; conditions: read-out: Activity
M14 = experiment: Growth inhibition of human M14 cells assessed as cell growth at 10 uM incubated for 48 hrs by sulforhodamine B assay relative to control; conditions: M14, 48 h, read-out: Activity
MDA-MB-435 = experiment: Growth inhibition of human MDA-MB-435 cells assessed as cell growth at 10 uM incubated for 48 hrs by sulforhodamine B assay relative to control; conditions: MDA-MB-435, 48 h, read-out: Activity
SK-MEL-28 = experiment: Growth inhibition of human SK-MEL-28 cells assessed as cell growth at 10 uM incubated for 48 hrs by sulforhodamine B assay relative to control; conditions: SK-MEL-28, 48 h, read-out: Activity
UACC-257 = experiment: Growth inhibition of human UACC257 cells assessed as cell growth at 10 uM incubated for 48 hrs by sulforhodamine B assay relative to control; conditions: UACC-257, 48 h, read-out: Activity
UACC-62 = experiment: Growth inhibition of human UACC62 cells assessed as cell growth at 10 uM incubated for 48 hrs by sulforhodamine B assay relative to control; conditions: UACC-62, 48 h, read-out: Activity
OVCAR-4 = experiment: Growth inhibition of human OVCAR4 cells assessed as cell growth at 10 uM incubated for 48 hrs by sulforhodamine B assay relative to control; conditions: OVCAR-4, 48 h, read-out: Activity
OVCAR-8 = experiment: Growth inhibition of human OVCAR8 cells assessed as cell growth at 10 uM incubated for 48 hrs by sulforhodamine B assay relative to control; conditions: OVCAR-8, 48 h, read-out: Activity
786-0 = experiment: Growth inhibition of human 786-0 cells assessed as cell growth at 10 uM incubated for 48 hrs by sulforhodamine B assay relative to control; conditions: 786-0, 48 h, read-out: Activity
SN12C = experiment: Growth inhibition of human SN12C cells assessed as cell growth at 10 uM incubated for 48 hrs by sulforhodamine B assay relative to control; conditions: read-out: Activity
UO-31 = experiment: Growth inhibition of human UO31 cells assessed as cell growth at 10 uM incubated for 48 hrs by sulforhodamine B assay relative to control; conditions: UO-31, 48 h, read-out: Activity
PC-3 = experiment: Growth inhibition of human PC3 cells assessed as cell growth at 10 uM incubated for 48 hrs by sulforhodamine B assay relative to control; conditions: PC-3, 48 h, read-out: Activity
DU-145 = experiment: Growth inhibition of human DU145 cells assessed as cell growth at 10 uM incubated for 48 hrs by sulforhodamine B assay relative to control; conditions: DU-145, 48 h, read-out: Activity
Hs-578T = experiment: Growth inhibition of human Hs 578T cells assessed as cell growth at 10 uM incubated for 48 hrs by sulforhodamine B assay relative to control; conditions: read-out: Activity
MDA-MB-468 = experiment: Growth inhibition of human MDA-MB-468 cells assessed as cell growth at 10 uM incubated for 48 hrs by sulforhodamine B assay relative to control; conditions: MDA-MB-468, 48 h, read-out: Activity
HOP-92 = experiment: Growth inhibition of human HOP92 cells assessed as cell growth at 10 uM incubated for 48 hrs by sulforhodamine B assay relative to control; conditions: HOP-92, 48 h, read-out: Activity

Compound	growth at 10 µM (CCRF-CEM) [%]	growth at 10 µM (HOP-62) [%]	growth at 10 µM (NCI-H226) [%]	growth at 10 µM (NCI-H23) [%]	growth at 10 µM (HCT-116) [%]	growth at 10 µM (HCT-15) [%]	growth at 10 µM (HT-29) [%]	growth at 10 µM (KM12) [%]	growth at 10 µM (SF-268) [%]	growth at 10 µM (SF-295) [%]	growth at 10 µM (SF-539) [%]	growth at 10 µM (SNB-75) [%]	growth at 10 µM (U-251) [%]	growth at 10 µM (Malme-3M) [%]	growth at 10 µM (M14) [%]	growth at 10 µM (MDA-MB-435) [%]	growth at 10 µM (SK-MEL-28) [%]	growth at 10 µM (UACC-257) [%]	growth at 10 µM (UACC-62) [%]	growth at 10 µM (OVCAR-8) [%]	further results
COc1cc2cc(Oc3ccc(NC(=O)Nc4ccccc4)cc3)c(C)nc2cc1OC	55.2	103	39.8	87.2	42.6	64.1	48.9	70.3	88.1	54	78	75.8	48	86.4	93.7	89.4	96.2	92.4	88.4	71.9	growth at 10 µM (HL-60(TB)): 70.5%; growth at 10 µM (K562): 42.8%; growth at 10 µM (MOLT-4): 37.9%; growth at 10 µM (SR): 42.6%; growth at 10 µM (OVCAR-4): 70.2%; growth at 10 µM (786-0): 94.8%; growth at 10 µM (SN12C): 70.7%; growth at 10 µM (UO-31): 65.9%; growth at 10 µM (PC-3): 60.4%; growth at 10 µM (DU-145): 88.7%; growth at 10 µM (Hs-578T): 78%; growth at 10 µM (MDA-MB-468): 35.3%
COc1cc2cc(Sc3ccc(NC(=O)Nc4ccc(Cl)c(Cl)c4)cc3)c(C)nc2cc1OC	50.7	92.6	90.9	84.7	67.9	75.9	91.9	74.5	72.6	56.5	86	86.4	70	89.9	81.3	76.7	96.5	90	69.5	83.6	growth at 10 µM (HL-60(TB)): 77.3%; growth at 10 µM (K562): 52.5%; growth at 10 µM (MOLT-4): 38.1%; growth at 10 µM (SR): 52.7%; growth at 10 µM (HOP-92): 71.2%; growth at 10 µM (OVCAR-4): 78.2%; growth at 10 µM (786-0): 73.4%; growth at 10 µM (SN12C): 78.8%; growth at 10 µM (UO-31): 62.8%; growth at 10 µM (PC-3): 56.1%; growth at 10 µM (DU-145): 75.5%; growth at 10 µM (Hs-578T): 85.6%; growth at 10 µM (MDA-MB-468): 55.1%
COc1cc2cc(Oc3ccc(NC(=O)Nc4ccc(Cl)c(C(F)(F)F)c4)cc3)c(C)nc2cc1OC	-17.6	-51	4.49	3.46	-87.3	1.27	-24.9	-16.4	-10.2	-70.9	-36.2	12.4	-80.4	-23	-73.7	-25.7	-35.9	-12.5	-51.5	7.34	growth at 10 µM (HL-60(TB)): -40.6%; growth at 10 µM (K562): -9.54%; growth at 10 µM (MOLT-4): -27.9%; growth at 10 µM (SR): -32.5%; growth at 10 µM (HOP-92): -22.3%; growth at 10 µM (OVCAR-4): 17.1%; growth at 10 µM (786-0): -21.1%; growth at 10 µM (SN12C): 13.2%; growth at 10 µM (UO-31): -45.1%; growth at 10 µM (PC-3): -0.61%; growth at 10 µM (DU-145): 12.7%; growth at 10 µM (Hs-578T): 2.5%; growth at 10 µM (MDA-MB-468): -42.7%
COc1cc2cc(Oc3ccc(NC(=O)Nc4ccc(C)cc4)cc3)c(C)nc2cc1OC	101	66.9	102	95.5	107	103	115	104	80.2	107	108	56.3	99.9	94.6	124	107	109	112	99.3	87.4	growth at 10 µM (HL-60(TB)): 93%; growth at 10 µM (K562): 90.8%; growth at 10 µM (MOLT-4): 82.4%; growth at 10 µM (SR): 83.1%; growth at 10 µM (786-0): 126%; growth at 10 µM (SN12C): 93%; growth at 10 µM (UO-31): 89.2%; growth at 10 µM (PC-3): 94.5%; growth at 10 µM (DU-145): 102%; growth at 10 µM (Hs-578T): 76.5%; growth at 10 µM (MDA-MB-468): 97.1%
Cc1nc2cc(O)c(O)cc2cc1Oc1ccc(NC(=O)Nc2ccc(Cl)c(Cl)c2)cc1	19.9	35.7	38.3	62.8	44.6	37.2	48	74.7	65.5	95.9	56.9	75.8	41.4	85.2	80.8	54.2	79.1	88.5	84.5	47.7	growth at 10 µM (HL-60(TB)): 96.8%; growth at 10 µM (K562): 53.9%; growth at 10 µM (MOLT-4): 12.6%; growth at 10 µM (SR): 8.92%; growth at 10 µM (HOP-92): 37.5%; growth at 10 µM (OVCAR-4): 67.7%; growth at 10 µM (786-0): 103%; growth at 10 µM (SN12C): 85.7%; growth at 10 µM (UO-31): 58.6%; growth at 10 µM (PC-3): 39.3%; growth at 10 µM (DU-145): 60.3%; growth at 10 µM (Hs-578T): 105%
COc1cc2cc(Oc3ccc(NC(=O)Nc4cc(C(F)(F)F)cc(C(F)(F)F)c4)cc3)c(C)nc2cc1OC	0.19	-54.1	-10.2	2.28	3.73	2.75	4.89	5.61	15.3	-59.2	-41	9.73	-26.5	-3.13	9.04	-2.55	7.66	-4.68	-34.6	14.2	growth at 10 µM (HOP-92): -25.4%; growth at 10 µM (OVCAR-4): 27.9%; growth at 10 µM (786-0): -16.6%; growth at 10 µM (SN12C): 7.69%; growth at 10 µM (UO-31): 11.6%; growth at 10 µM (PC-3): 6.82%; growth at 10 µM (DU-145): 19.5%; growth at 10 µM (Hs-578T): -10.7%; growth at 10 µM (MDA-MB-468): -8.12%
